Experimental data from patent publication US9062041B2 (Bayer Intellectual Property GmbH, priority 2011, dated 2015).

Legend:
Assay type in all cases: cell-based
[1] = target: T1, human PGD receptor (Homo sapiens, UniProt Q13258); test: cAMP antagonism test on the human prostaglandin D receptor (HTRF cAMP detection); details: selectivity towards hDP, IC50 measured by cAMP antagonism test
T1 sequence (Q13258 1-359): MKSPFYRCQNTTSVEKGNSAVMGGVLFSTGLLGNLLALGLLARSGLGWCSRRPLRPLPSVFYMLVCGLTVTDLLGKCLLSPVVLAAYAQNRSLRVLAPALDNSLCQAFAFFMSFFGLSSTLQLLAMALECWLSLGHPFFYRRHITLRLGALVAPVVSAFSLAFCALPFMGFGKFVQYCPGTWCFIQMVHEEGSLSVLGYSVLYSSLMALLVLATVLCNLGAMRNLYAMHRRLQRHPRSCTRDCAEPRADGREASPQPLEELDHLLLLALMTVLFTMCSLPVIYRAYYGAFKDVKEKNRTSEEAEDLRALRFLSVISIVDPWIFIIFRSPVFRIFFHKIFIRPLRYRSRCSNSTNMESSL
Method in brief: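 HTRF competition read-out (665/620 nm ratio ×10000), where higher FRET means less cAMP, i.e. antagonism. Compounds (0.8 nM–16.5 μM) were preincubated 20 min at RT with cells and cAMP-d2, PGD2 (3× solution, 6 nM) in IBMX-containing PBS added for 30 min at RT, then cells lysed 20 min.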

[2] = target: EP2 subtype of the human PGE2 receptor (Homo sapiens, UniProt P43116); test: cAMP antagonism test on the human EP2 receptor (HTRF cAMP detection); details: hEP2 receptor, read-out: Antagonism hEP2 IC50
Method in brief: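 Read-out is a competitive HTRF for cAMP: lysate cAMP displaces cAMP-d2 from Eu cryptate-labelled antibody, and antagonism raises the 665/620 nm ratio. Compound (0.8 nM–16.5 μM) added to EP2 cells 20 min at RT before 60 min PGE2 challenge (3× stock 1.5 nM) with IBMX, followed by 20 min lysis.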

[3] = target: EP4 subtype of the human PGE2 receptor (Homo sapiens, UniProt P35408); test: cAMP antagonism test on the human EP4 receptor (HTRF cAMP detection); details: selectivity towards hEP4, IC50 measured by cAMP antagonism test
Method in brief: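 Competitive HTRF cAMP read-out (cAMP-d2 vs Eu-cryptate anti-cAMP antibody, 665/620 nm ratio) on lysed human EP4 cells. Compound (0.8 nM–16.5 μM) applied 20 min at RT before 60 min PGE2 challenge (3× solution 0.3 nM, IBMX present); 20 min lysis precedes reading.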

Chain of EP4 subtype of the human PGE2 receptor (P35408 whole entry): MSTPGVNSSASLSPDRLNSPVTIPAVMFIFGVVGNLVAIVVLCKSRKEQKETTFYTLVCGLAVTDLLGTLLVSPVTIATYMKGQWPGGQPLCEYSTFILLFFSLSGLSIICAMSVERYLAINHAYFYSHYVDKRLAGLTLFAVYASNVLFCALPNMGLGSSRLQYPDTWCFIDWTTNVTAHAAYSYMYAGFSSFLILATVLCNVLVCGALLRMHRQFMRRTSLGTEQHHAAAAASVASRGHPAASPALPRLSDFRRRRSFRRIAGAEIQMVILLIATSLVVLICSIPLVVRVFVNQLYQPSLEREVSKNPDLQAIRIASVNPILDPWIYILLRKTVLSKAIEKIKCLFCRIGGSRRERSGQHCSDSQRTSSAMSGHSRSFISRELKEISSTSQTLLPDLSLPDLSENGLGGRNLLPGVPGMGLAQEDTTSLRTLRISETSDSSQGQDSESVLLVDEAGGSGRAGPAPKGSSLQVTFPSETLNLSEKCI
Chain of EP2 subtype of the human PGE2 receptor (P43116 whole entry): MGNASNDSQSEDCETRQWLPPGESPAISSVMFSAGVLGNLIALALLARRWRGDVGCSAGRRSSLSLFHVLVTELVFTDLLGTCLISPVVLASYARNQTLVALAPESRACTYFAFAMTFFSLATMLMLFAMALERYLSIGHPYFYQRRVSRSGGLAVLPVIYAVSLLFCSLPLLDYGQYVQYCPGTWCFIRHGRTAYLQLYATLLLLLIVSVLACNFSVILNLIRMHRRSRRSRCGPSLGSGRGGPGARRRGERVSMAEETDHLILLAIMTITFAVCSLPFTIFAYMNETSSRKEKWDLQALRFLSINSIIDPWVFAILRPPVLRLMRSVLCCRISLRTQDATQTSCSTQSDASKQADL

| SMILES | Selectivity hEP2/hDP [1] | IC50 [2] [µM] | Selectivity hEP2/hEP4 [3] |
| --- | --- | --- | --- |
| COCCNC(=O)c1ccc2nn(CC3CCN(C(=O)c4nc5ccccc5o4)CC3)cc2c1C [Example 340, 2-{[1-(benzoxazol-2-ylcarbonyl)piperidin-4-yl]methyl}-N-(2-methoxyethyl)-4-methyl-2H-indazol-5-carboxamide] | xxx (xxx > 100) | 0.0199 | xxx (xxx > 100) |
| Cc1c(C(=O)NCCN2CCOCC2)ccc2nn(CC3CCN(C(=O)c4cccc(C(F)(F)F)c4)CC3)cc12 [Example 65, 4-methyl-N-(2-morpholinoethyl)-2-({1-[3-(trifluoromethyl)benzoyl]piperidin-4-yl}methyl)-2H-indazol-5-carboxamide] | x (x: 1-10) | 2.79 | x (x: 1-10) |
| CCNC(=O)c1ccc2nn(CC3CCN(C(=O)c4ccc(Cl)cc4)CC3)cc2c1C [Example 242, 2-{[1-(4-chlorobenzoyl)piperidin-4-yl]methyl}-N-ethyl-4-methyl-2H-indazol-5-carboxamide] | xx (xx: 10-100) | 0.305 | xx (xx: 10-100) |
| Cc1c(C(=O)NCC(F)(F)F)ccc2nn(CC3CN(C(=O)c4ccc(OC(F)(F)F)cc4)C3)cc12 [Example 130, 4-methyl-N-(2,2,2-trifluoroethyl)-2-({1-[4-(trifluoromethoxy)benzoyl]azetidin-3-yl}methyl)-2H-indazol-5-carboxamide] | xx (xx: 10-100) | 0.241 | xx (xx: 10-100) |
| Cc1c(C(=O)NCCOCC(F)(F)F)ccc2nn(CC3CCN(C(=O)c4ccc(C5CC5)cc4)CC3)cc12 [Example 95, 2-{[1-(4-cyclo-propylbenzoyl)-piperidin-4-yl]-methyl}-4-methyl-N-[2-(2,2,2-tri-fluoroethoxy)ethyl]-2H-indazol-5-carboxamide] | xxx (xxx > 100) | 0.00618 | xxx (xxx > 100) |
| Cc1c(C(=O)NCC2COCCO2)ccc2nn(CC3CCN(C(=O)c4ccc(Cl)cc4)CC3)cc12 (single isomer, unassigned) [Example 414, (R or S)-2-{[1-(4-chlorobenzoyl)piperidin-4-yl]methyl}-N-(1,4-dioxan-2-ylmethyl)-4-methyl-2H-indazol-5-carboxamide] | xx (xx: 10-100) | 0.223 | xx (xx: 10-100) |
| [2H]C([2H])([2H])OC([2H])([2H])C([2H])([2H])NC(=O)c1ccc2nn(CC3CCN(C(=O)c4ccc(Oc5ccc(F)cc5)cc4)CC3)cc2c1C [Example 116, 2-({1-[4-(4-fluoro-phenoxy)benzoyl]-piperidin-4-yl}methyl)-4-methyl-N-(2-[^2H3]-methyloxy[^2H4]ethyl)-2H-indazol-5-carboxamide] | xxx (xxx > 100) | 0.00552 | xxx (xxx > 100) |
| Cc1ccc(C(=O)N2CCC(Cn3cc4c(C)c(C(=O)NCCOCC5CC5)ccc4n3)CC2)cc1 [Example 85, N-[2-(cyclopropyl-methoxy)ethyl]-4-methyl-2-{[1-(4-methylbenzoyl)-piperidin-4-yl]-methyl}-2H-indazol-5-carboxamide] | xxx (xxx > 100) | 0.0355 | xxx (xxx > 100) |
| Cc1c(C(=O)NCC(F)(F)F)ccc2nn(CC3CCN(C(=O)c4cn(C)c5ccccc45)CC3)cc12 [Example 289, 4-methyl-2-({1-[(1-methyl-1H-indol-3-yl)carbonyl]piperidin-4-yl}methyl)-N-(2,2,2-trifluoroethyl)-2H-indazol-5-carboxamide] | xxx (xxx > 100) | 0.0516 | xxx (xxx > 100) |
| Cc1ccc(C(=O)N2CCC(Cn3cc4c(C)c(C(=O)NCCOC(C)C)ccc4n3)CC2)cc1 [Example 97, N-(2-isopropoxy-ethyl)-4-methyl-2-{[1-(4-methyl-benzoyl)piperidin-4-yl]methyl}-2H-indazol-5-carboxamide] | xxx (xxx > 100) | 0.0127 | xxx (xxx > 100) |
| COCCNC(=O)c1ccc2nn(CC3CCN(C(=O)c4cnc(-c5ccccc5)s4)CC3)cc2c1C [Example 337, N-(2-methoxyethyl)-4-methyl-2-({1-[(2-phenylthiazol-5-yl)carbonyl]piperidin-4-yl}methyl)-2H-indazol-5-carboxamide] | xxx (xxx > 100) | 0.0181 | xxx (xxx > 100) |
| COCCNC(=O)c1ccc2nn(CC3CCN(C(=O)c4ccc(Cl)cc4)CC3)cc2c1OC [Example 262, 2-{[1-(4-chlorobenzoyl)piperidin-4-yl]methyl}-4-methoxy-N-(2-methoxyethyl)-2H-indazol-5-carboxamide] | xxx (xxx > 100) | 0.0334 | xxx (xxx > 100) |
| COCCNC(=O)c1ccc2nn(CC3CCN(C(=O)c4ccc5ccc(OC)cc5c4)CC3)cc2c1C [Example 344, N-(2-methoxyethyl)-2-{[1-(7-methoxy-2-naphthoyl)piperidin-4-yl]methyl}-4-methyl-2H-indazol-5-carboxamide] | xxx (xxx > 100) | 0.0103 | xxx (xxx > 100) |
| COCCNC(=O)c1ccc2nn(CC3CCN(C(=O)c4ccc(-c5cncc(F)c5)cc4)CC3)cc2c1C [Example 386, 2-({1-[4-(5-fluoropyridin-3-yl)benzoyl]piperidin-4-yl}methyl)-N-(2-methoxy-ethyl)-4-methyl-2H-indazol-5-carboxamide] | xxx (xxx > 100) | 0.0257 | xxx (xxx > 100) |
| O=C(NCCOCC1CC1)c1ccc2nn(CC3CCN(C(=O)c4ccc(Oc5ccc(F)cc5)cc4)CC3)cc2c1OC(F)F [Example 230, N-[2-(cyclopropylmethoxy)ethyl]-4-(difluoromethoxy)-2-({1-[4-(4-fluoro-phenoxy)benzoyl]piperidin-4-yl}methyl)-2H-indazol-5-carboxamide] | xxx (xxx > 100) | 0.0137 | xxx (xxx > 100) |
| Cc1c(C(=O)NCC(F)(F)F)ccc2nn(CC3CCN(C(=O)c4cnc(-c5ccccc5)o4)CC3)cc12 [Example 300, 4-methyl-2-({1-[(2-phenyloxazol-5-yl)carbonyl]piperidin-4-yl}methyl)-N-(2,2,2-trifluoroethyl)-2H-indazol-5-carboxamide] | xxx (xxx > 100) | 0.0798 | xxx (xxx > 100) |
| CCOCCNC(=O)c1ccc2nn(CC3CN(C(=O)c4ccc(Cl)cc4)C3)cc2c1OC [Example 259, 2-{[1-(4-chlorobenzoyl)azetidin-3-yl]methyl}-N-(2-ethoxyethyl)-4-methoxy-2H-indazol-5-carboxamide] | xxx (xxx > 100) | 0.0256 | xxx (xxx > 100) |
| Cc1c(C(=O)NCC(F)(F)F)ccc2nn(CC3CCN(C(=O)c4ccc(Oc5ccc(C(F)(F)F)cn5)cc4)CC3)cc12 [Example 301, 4-methyl-N-(2,2,2-trifluoroethyl)-2-{[1-(4-{[5-(trifluoromethyl)pyridin-2-yl]-oxy}benzoyl)piperidin-4-yl]methyl}-2H-indazol-5-carboxamide] | xxx (xxx > 100) | 0.0245 | xxx (xxx > 100) |
| CCc1c(C(=O)NCCOC)ccc2nn(CC3CCN(C(=O)c4ccc(OC(F)(F)F)cc4)CC3)cc12 [Example 213, 4-Ethyl-N-(2-methoxyethyl)-2-({1-[4-(trifluoromethoxy)benzoyl]piperidin-4-yl}methyl)-2H-indazol-5-carboxamide] | xxx (xxx > 100) | 0.0824 | xxx (xxx > 100) |
| Cc1c(C(=O)NCC2CCCCO2)ccc2nn(CC3CCN(C(=O)c4ccc(Cl)cc4)CC3)cc12 (single isomer, unassigned) [Example 241, (S or R)-2-{[1-(4-chlorobenzoyl)piperidin-4-yl]methyl}-4-methyl-N-(3,4,5,6-tetrahydro-2H-pyran-2-ylmethyl)-2H-indazol-5-carboxamide] | xxx (xxx > 100) | 0.00903 | xxx (xxx > 100) |
| COCCNC(=O)c1ccc2nn(CC3CN(C(=O)c4ccc(Cl)c(C(F)(F)F)c4)C3)cc2c1C [Example 123, 2-({1-[4-chloro-3-(trifluoromethyl)benzoyl]azetidin-3-yl}methyl)-N-(2-methoxy-ethyl)-4-methyl-2H-indazol-5-carboxamide] | xxx (xxx > 100) | 0.00892 | xxx (xxx > 100) |
